Source: patent US20240336612A1, “BRM Targeting Compounds And Associated Methods Of Use” (Prelude Therapeutics Incorporated, priority 2021, published 2024)

Experiments:
[1] = biological target: T1, SMARCA2 (Homo sapiens, UniProt P51531); assay: SMARCA2 HiBiT degradation assay in HeLa cells; format: cell-based; settings: 18 hours incubation; for DC50: read-out: DC50 (SM2-HeLa), SMARCA2 degradation potency; for Dmax: read-out: Dmax % (SM2-HeLa), maximum SMARCA2 degradation within the concentrations tested
T1 construct: SMARCA2-HiBiT knock-in Hela monoclonal cell (CS302366); host or cells: HeLa (HiBiT knock-in monoclonal line)
T1 sequence (P51531 whole entry): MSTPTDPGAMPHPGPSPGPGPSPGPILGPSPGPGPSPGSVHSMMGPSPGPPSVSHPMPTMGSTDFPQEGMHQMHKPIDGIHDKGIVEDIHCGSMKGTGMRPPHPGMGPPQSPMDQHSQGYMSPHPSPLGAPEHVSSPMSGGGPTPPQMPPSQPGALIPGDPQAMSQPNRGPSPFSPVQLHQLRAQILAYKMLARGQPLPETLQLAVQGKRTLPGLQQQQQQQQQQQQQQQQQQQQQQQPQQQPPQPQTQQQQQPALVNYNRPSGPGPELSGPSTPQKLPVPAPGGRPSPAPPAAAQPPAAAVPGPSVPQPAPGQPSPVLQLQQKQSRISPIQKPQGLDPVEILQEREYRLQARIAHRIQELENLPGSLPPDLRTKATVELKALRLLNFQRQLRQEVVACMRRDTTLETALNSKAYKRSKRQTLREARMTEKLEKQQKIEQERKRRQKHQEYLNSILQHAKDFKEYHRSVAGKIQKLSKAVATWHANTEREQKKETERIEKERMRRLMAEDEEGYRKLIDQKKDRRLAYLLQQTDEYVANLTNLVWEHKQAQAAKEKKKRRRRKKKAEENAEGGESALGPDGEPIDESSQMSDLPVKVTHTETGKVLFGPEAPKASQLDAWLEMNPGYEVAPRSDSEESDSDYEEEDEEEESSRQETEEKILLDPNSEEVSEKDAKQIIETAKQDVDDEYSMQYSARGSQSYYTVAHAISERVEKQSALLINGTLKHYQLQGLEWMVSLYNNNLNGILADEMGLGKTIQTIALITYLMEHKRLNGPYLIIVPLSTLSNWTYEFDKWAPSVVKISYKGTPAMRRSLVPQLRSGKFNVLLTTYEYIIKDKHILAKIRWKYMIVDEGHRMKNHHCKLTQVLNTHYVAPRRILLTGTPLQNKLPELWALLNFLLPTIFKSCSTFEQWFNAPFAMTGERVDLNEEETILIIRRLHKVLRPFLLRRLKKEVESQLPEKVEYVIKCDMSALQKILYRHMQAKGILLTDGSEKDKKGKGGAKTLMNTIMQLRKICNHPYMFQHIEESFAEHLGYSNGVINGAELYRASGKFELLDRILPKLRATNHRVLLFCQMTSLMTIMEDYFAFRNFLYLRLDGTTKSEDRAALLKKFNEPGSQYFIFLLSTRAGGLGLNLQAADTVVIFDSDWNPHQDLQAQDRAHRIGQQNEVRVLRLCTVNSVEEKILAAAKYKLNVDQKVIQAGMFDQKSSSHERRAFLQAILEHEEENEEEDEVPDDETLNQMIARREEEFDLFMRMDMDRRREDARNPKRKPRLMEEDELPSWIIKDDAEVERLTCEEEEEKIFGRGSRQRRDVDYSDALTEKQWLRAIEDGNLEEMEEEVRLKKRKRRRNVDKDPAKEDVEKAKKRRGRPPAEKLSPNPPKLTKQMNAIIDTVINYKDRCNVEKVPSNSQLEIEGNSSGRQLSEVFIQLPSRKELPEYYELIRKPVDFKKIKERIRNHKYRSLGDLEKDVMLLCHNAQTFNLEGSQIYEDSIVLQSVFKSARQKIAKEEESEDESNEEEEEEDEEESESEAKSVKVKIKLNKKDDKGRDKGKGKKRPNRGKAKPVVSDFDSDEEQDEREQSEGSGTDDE
Description: (§1) SMARCA2 HiBiT and SMARCA4 HiBiT Degradation Assay (cellular)
(§2) Preparation of SMARCA2/4-HiBiT Knock-In Cells
(§3) SMARCA2-HiBiT knock-in Hela monoclonal cell (CS302366) and SMARCA4-HiBiT knock-in Hela monoclonal cell (CS3023226) were purchased from Promega. The heterozygous HiBiT-knock-in was confirmed by sanger sequence in both SMARCA2-HiBiT and SMARCA4-HiBiT monoclonal cells.
(§4) SMARCA2 HiBiT and SMARCA4 HiBiT Degradation Assay in HeLa Cells
(§5) Dispense 10 μL aliquot of prepared Hela-SMARCA2-HiBiT or Hela-SMARCA4-HiBiT cells (1:1 ratio of cells:Trypan Blue (#1450013, Bio-Rad)) onto cell counting slide (#145-0011, Bio-Rad) and obtain cell density and cell viability using cell counter (TC20, Bio-Rad). Remove appropriate volume of resuspended cells from culture flask to accommodate 2500 cells/well @ 20 μL/well. Transfer Hela-HiBiT cells to 50 ml conical (#430290, Corning). Spin down at 1000 rpm for 5 min using tabletop centrifuge (SPINCHRON 15, Beckman). Discard supernatant and resuspend cell pellet in modified EMEM (#30-2003, ATCC) cell culture media containing 10% FBS (F2422-500ML, Sigma), and 1× Penicillin/Streptomycin (200 g/l) (30-002-CI, Corning) to a cell density of 125,000 cells/ml. Dispense 20 μL of resuspended Hela-HiBit cells per well in 384-well TC treated plate (#12-565-343, Thermo Scientific) using standard cassette (#50950372, Thermo Scientific) on Multidrop Combi (#5840310, Thermo Scientific) inside laminar flow cabinet. Dispense test compounds onto plates using digital liquid dispenser (D300E, Tecan). Incubate plates in humidified tissue culture incubator @37° C. for 18 hours. Add 20 ul of prepared Nano-Glo® HiBiT Lytic detection buffer (N3050, Promega) to each well of 384-well plate using small tube cassette (#24073295, Thermo Scientific) on Multidrop Combi, incubate @ RT for 30-60 min. Read plates on microplate reader (Envision 2105, PerkinElmer) using 384 well Ultra-Sensitive luminescence mode. Raw data files and compound information reports are swept into centralized data lake and deconvoluted using automated scripts designed by TetraScience, Inc. Data analysis, curve-fitting and reporting done in Dotmatics Informatics Suite using Screening Ultra module.
(§6) The results are shown below in Table 4 for the HiBiT assay. In Table 4, the DC50/Dmax% (SM2-HeLa) refers to SMARCA2 degradation potency/maximum SMARCA2 degradation within the concentrations tested in HeLa HiBiT assay. In Table 4, the DC50/Dmax% (SM4-HeLa) refers to SMARCA4 degradation potency/maximum SMARCA4 degradation within the concentrations tested in HeLa HiBiT assay.

[2] = biological target: T2, SMARCA4 (Homo sapiens, UniProt P51532); assay: SMARCA4 HiBiT degradation assay in HeLa cells; format: cell-based; settings: 18 hours incubation; for DC50: read-out: DC50 (SM4-HeLa), SMARCA4 degradation potency; for Dmax: read-out: Dmax % (SM4-HeLa), maximum SMARCA4 degradation within the concentrations tested
T2 construct: SMARCA4-HiBiT knock-in Hela monoclonal cell (CS3023226); host or cells: HeLa (HiBiT knock-in monoclonal line)
T2 sequence (P51532 whole entry): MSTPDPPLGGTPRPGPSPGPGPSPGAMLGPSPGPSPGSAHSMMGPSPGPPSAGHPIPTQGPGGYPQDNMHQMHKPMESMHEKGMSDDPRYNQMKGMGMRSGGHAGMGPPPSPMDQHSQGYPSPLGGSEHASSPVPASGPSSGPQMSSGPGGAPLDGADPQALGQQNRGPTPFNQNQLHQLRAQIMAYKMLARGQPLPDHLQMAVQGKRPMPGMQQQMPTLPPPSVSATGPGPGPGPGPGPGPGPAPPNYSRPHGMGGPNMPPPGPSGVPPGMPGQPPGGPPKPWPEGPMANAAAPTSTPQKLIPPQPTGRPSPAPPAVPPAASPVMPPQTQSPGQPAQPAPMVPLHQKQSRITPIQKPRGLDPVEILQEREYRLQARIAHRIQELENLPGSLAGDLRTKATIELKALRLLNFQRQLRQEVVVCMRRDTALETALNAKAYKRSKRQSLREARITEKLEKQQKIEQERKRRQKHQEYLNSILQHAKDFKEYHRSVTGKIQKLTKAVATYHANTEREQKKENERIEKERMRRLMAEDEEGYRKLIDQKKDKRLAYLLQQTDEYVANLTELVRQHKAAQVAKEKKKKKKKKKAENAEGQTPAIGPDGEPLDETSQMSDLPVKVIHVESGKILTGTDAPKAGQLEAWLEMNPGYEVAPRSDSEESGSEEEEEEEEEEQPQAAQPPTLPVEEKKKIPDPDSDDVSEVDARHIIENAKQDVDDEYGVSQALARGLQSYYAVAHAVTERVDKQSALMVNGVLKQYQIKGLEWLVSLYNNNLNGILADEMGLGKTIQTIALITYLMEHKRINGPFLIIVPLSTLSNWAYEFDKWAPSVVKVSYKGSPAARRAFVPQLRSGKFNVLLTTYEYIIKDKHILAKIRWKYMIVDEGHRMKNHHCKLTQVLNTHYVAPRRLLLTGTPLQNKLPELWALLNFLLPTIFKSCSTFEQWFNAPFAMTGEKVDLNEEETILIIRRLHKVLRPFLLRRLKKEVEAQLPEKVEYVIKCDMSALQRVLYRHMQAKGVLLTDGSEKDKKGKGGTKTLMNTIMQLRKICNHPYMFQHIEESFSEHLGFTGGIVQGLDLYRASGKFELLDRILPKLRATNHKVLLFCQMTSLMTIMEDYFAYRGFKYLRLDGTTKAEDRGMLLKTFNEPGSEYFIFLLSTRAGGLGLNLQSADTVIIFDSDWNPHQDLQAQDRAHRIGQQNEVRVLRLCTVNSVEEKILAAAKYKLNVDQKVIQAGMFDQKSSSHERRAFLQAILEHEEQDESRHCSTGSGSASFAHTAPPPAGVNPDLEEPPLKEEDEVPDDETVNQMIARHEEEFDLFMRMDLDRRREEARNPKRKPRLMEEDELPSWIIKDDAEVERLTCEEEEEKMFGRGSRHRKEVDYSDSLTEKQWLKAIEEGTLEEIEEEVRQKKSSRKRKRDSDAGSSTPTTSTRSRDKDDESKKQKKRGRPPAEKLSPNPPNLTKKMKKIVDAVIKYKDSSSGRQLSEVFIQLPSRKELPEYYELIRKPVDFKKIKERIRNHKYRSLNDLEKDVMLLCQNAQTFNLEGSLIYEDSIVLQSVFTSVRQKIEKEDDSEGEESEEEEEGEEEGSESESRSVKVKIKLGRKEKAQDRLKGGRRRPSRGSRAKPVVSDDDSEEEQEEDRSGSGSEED
Description: as §1, §2, §3, §4, §5, §6

| Compound | DC50 [1] | Dmax [1] | DC50 [2] | Dmax [2] |
| --- | --- | --- | --- | --- |
| Cc1ncsc1-c1ccc([C@H](C)NC(=O)[C@@H]2C[C@@H](O)CN2C(=O)[C@@H](c2cc(OCCN3CCC(N4CCC5(CC4)CNc4nnc(-c6ccccc6O)cc45)C3)no2)C(C)C)cc1 (stereo partly drawn) [Example 1, (2S,4R)-4-hydroxy-1-((2R)-2-(3-(2-(3-(3′-(2-hydroxyphenyl)-6′,7′-dihydrospiro[piperidine-4,5′-pyrrolo[2,3-c]pyridazin]-1-yl)pyrrolidin-1-yl)ethoxy)isoxazol-5-yl)-3-methylbutanoyl)-N-((S)-1-(4-(4-methylthiazol-5-yl)phenyl)ethyl) pyrrolidine-2-carboxamide] | < 100 nM | > 75% | ≥ 10000 nM | ≤ 50% |
| Cc1ncsc1-c1ccc([C@H](C)NC(=O)[C@@H]2C[C@@H](O)CN2C(=O)[C@@H](c2cc(OCCN3CCC(N4CCC5(CC4)CNc4nnc(-c6ccccc6O)cc4N5)CC3)no2)C(C)C)cc1 [Example 2, (2S,4R)-4-hydroxy-1-((R)-2-(3-(2-(4-(3′-(2-hydroxyphenyl)-7′,8′-dihydro-5′H-spiro[piperidine-4,6′-pyrazino[2,3-c]pyridazin]-1-yl)piperidin-1-yl)ethoxy)isoxazol-5-yl)-3-methylbutanoyl)-N-((S)-1-(4-(4-methylthiazol-5-yl)phenyl)ethyl) pyrrolidine-2-carboxamide] | < 100 nM | 50 to 75% | < 100 nM | > 75% |
| Cc1ncsc1-c1ccc([C@H](C)NC(=O)[C@@H]2C[C@@H](O)CN2C(=O)[C@@H](c2cc(OCCN3CCC(CN4CCC5(CC4)CNc4nnc(-c6ccccc6O)cc45)CC3)no2)C(C)C)cc1 [Example 3, (2S,4R)-4-hydroxy-1-((R)-2-(3-(2-(4-((3′-(2-hydroxyphenyl)-6′,7′-dihydrospiro[piperidine-4,5′-pyrrolo[2,3-c]pyridazin]-1-yl)methyl)piperidin-1-yl)ethoxy)isoxazol-5-yl)-3-methylbutanoyl)-N-((S)-1-(4-(4-methylthiazol-5-yl)phenyl)ethyl) pyrrolidine-2-carboxamide] | < 100 nM | 50 to 75% | ≥ 10000 nM | ≤ 50% |
| Cc1ncsc1-c1ccc([C@H](C)NC(=O)[C@@H]2C[C@@H](O)CN2C(=O)[C@@H](c2cc(OCCN3CCC(N4CCCC5(CNc6nnc(-c7ccccc7O)cc6N5)C4)C3)no2)C(C)C)cc1 (stereo partly drawn) [Example 4, (2S,4R)-4-hydroxy-1-((2R)-2-(3-(2-(3-(3′-(2-hydroxyphenyl)-7′,8′-dihydro-5′H-spiro[piperidine-3,6′-pyrazino[2,3-c]pyridazin]-1-yl)pyrrolidin-1-yl)ethoxy)isoxazol-5-yl)-3-methylbutanoyl)-N-((S)-1-(4-(4-methylthiazol-5-yl)phenyl)ethyl) pyrrolidine-2-carboxamide] | < 100 nM | 50 to 75% | < 100 nM | > 75% |
| Cc1ncsc1-c1ccc([C@H](C)NC(=O)[C@@H]2C[C@@H](O)CN2C(=O)[C@@H](c2cc(OCCN3CCC(N4CCCC5(CNc6nnc(-c7ccccc7O)cc6N5)C4)CC3)no2)C(C)C)cc1 (stereo partly drawn) [Example 5, (2S,4R)-4-hydroxy-1-((2R)-2-(3-(2-(4-(3′-(2-hydroxyphenyl)-7′,8′-dihydro-5′H-spiro[piperidine-3,6′-pyrazino[2,3-c]pyridazin]-1-yl)piperidin-1-yl)ethoxy)isoxazol-5-yl)-3-methylbutanoyl)-N-((S)-1-(4-(4-methylthiazol-5-yl)phenyl)ethyl) pyrrolidine-2-carboxamide] | < 100 nM | 50 to 75% | < 100 nM | > 75% |
| Cc1ncsc1-c1ccc([C@H](C)NC(=O)[C@@H]2C[C@@H](O)CN2C(=O)[C@@H](c2cc(OCCN3CCC(N4CCC5(CC4)CNc4nnc(-c6ccccc6O)cc4N5)C3)no2)C(C)C)cc1 (stereo partly drawn) [Example 6, (2S,4R)-4-hydroxy-1-((2R)-2-(3-(2-(3-(3′-(2-hydroxyphenyl)-7′,8′-dihydro-5′H-spiro [piperidine-4,6′-pyrazino[2,3-c]pyridazin]-1-yl)pyrrolidin-1-yl)ethoxy)isoxazol-5-yl)-3-methylbutanoyl)-N-((S)-1-(4-(4-methylthiazol-5-yl)phenyl)ethyl) pyrrolidine-2-carboxamide] | 1000 to 10000 nM | ≤ 50% | 100 to 1000 nM | > 75% |
| Cc1ncsc1-c1ccc([C@H](C)NC(=O)[C@@H]2C[C@@H](O)CN2C(=O)[C@@H](c2cc(OCCN3CCC(CN4CCCC5(CNc6nnc(-c7ccccc7O)cc6N5)C4)CC3)no2)C(C)C)cc1 (stereo partly drawn) [Example 7, (2S,4R)-4-hydroxy-1-((2R)-2-(3-(2-(4-((3′-(2-hydroxyphenyl)-7′,8′-dihydro-5′H-spiro[piperidine-3,6′-pyrazino[2,3-c]pyridazin]-1-yl)methyl)piperidin-1-yl)ethoxy)isoxazol-5-yl)-3-methylbutanoyl)-N-((S)-1-(4-(4-methylthiazol-5-yl)phenyl)ethyl) pyrrolidine-2-carboxamide] | < 100 nM | > 75% | < 100 nM | > 75% |
| Cc1ncsc1-c1ccc([C@H](C)NC(=O)[C@@H]2C[C@@H](O)CN2C(=O)[C@@H](c2cc(OCCN3CCC(CN4CCC5(CC4)CNc4nnc(-c6ccccc6O)cc4N5)CC3)no2)C(C)C)cc1 [Example 8, (2S,4R)-4-hydroxy-1-((R)-2-(3-(2-(4-((3′-(2-hydroxyphenyl)-7′,8′-dihydro-5′H-spiro [piperidine-4,6′-pyrazino[2,3-c]pyridazin]-1-yl)methyl)piperidin-1-yl)ethoxy)isoxazol-5-yl)-3-methylbutanoyl)-N-((S)-1-(4-(4-methylthiazol-5-yl)phenyl)ethyl) pyrrolidine-2-carboxamide] | < 100 nM | > 75% | < 100 nM | > 75% |
